≈ marks a conversion by molar mass, not a printed value. Calls of active or inactive are those of the source. The calls are words filed in the database; no cut-off is given here.

This is an account of results in ChEMBL document CHEMBL5356971, “Optimization of the Antibacterial Spectrum and the Developability Profile of the Novel-Class Natural Product Corramycin” (J Med Chem, 2023).

A short description of series [1]: Metabolic stability in mouse lung assessed as parent compound remaining measured after 4 hrs by UPLC-MS analysis. It is filed as ADME, tissue-based. Conditions: mouse lung, read-out: Stability.
Series [2] relates to Acinetobacter baumannii. The series is described as follows: Antibacterial activity against wild type Acinetobacter baumannii ATCC 19606 assessed as reduction in microbial growth incubated for 20 to 22 hrs by CLSI based analysis. It is filed as functional. The settings on record: time 20-22 hrs.
Series [3] deals with Escherichia coli. The series is described as follows: Antibacterial activity against Escherichia coli ATCC 25922 infected in Swiss albino mouse thigh infection model at 10 mg/kg, iv measured after 1 hr. It is filed as functional, organism-based.
Series [4] concerns Klebsiella pneumoniae. The series is described as follows: Antibacterial activity against Klebsiella pneumoniae ATCC 13883 infected in Swiss albino mouse thigh infection model at 10 mg/kg, iv measured after 1 hr. It is filed as functional, organism-based.
The subject of series [5] is Klebsiella pneumoniae. Nature of the series: Antibacterial activity against Klebsiella pneumoniae ATCC 13883 infected in Swiss albino mouse model of neutropenic lung infection at 10 mg/kg, iv pretreated for 1 hr followed by bacterial infection and measured after 5 hr post infection. Conditions: time 6.0 hrs. It is filed as functional, organism-based.
Series [6] deals with Escherichia coli. The series is described as follows: Antibacterial activity against […] assessed as bacterial growth inhibition incubated for 20 to 22 hrs by CLSI based analysis. It is filed as functional. The settings on record: time 20-22 hrs.
The subject of series [7] is Escherichia coli. The series is described as follows: Antibacterial activity against multidrug-resistant Escherichia coli MG1655 assessed as bacterial growth inhibition incubated for 20 to 22 hrs by CLSI based analysis. It counts as functional. Conditions: time 20-22 hrs.
In series [8] the test system is Escherichia coli. Nature of the series: Antibacterial activity against multidrug-resistant Escherichia coli MG1655 harboring tolC mutant assessed as bacterial growth inhibition incubated for 20 to 22 hrs by CLSI based analysis. It is filed as functional. Conditions: time 20-22 hrs.
The test system of series [9] is Klebsiella pneumoniae. The series is described as follows: Antibacterial activity against multidrug-resistant Klebsiella pneumoniae NCTC 13443 assessed as bacterial growth inhibition incubated for 20 to 22 hrs by CLSI based analysis. It counts as functional. The settings on record: time 20-22 hrs.
The test system of series [10] is Klebsiella pneumoniae. The series is described as follows: Antibacterial activity against multidrug-resistant Klebsiella pneumoniae BAA2146 assessed as bacterial growth inhibition incubated for 20 to 22 hrs by CLSI based analysis. It is filed as functional. Conditions: time 20-22 hrs.
Series [11] concerns Klebsiella pneumoniae. The series is described as follows: Antibacterial activity against multidrug-resistant Klebsiella pneumoniae BAA2473 assessed as bacterial growth inhibition incubated for 20 to 22 hrs by CLSI based analysis. Conditions: time 20-22 hrs. It is filed as functional.
The test system of series [12] is Klebsiella pneumoniae. Nature of the series: Antibacterial activity against multidrug-resistant Klebsiella pneumoniae R1525 assessed as bacterial growth inhibition incubated for 20 to 22 hrs by CLSI based analysis. It counts as functional. The settings on record: time 20-22 hrs.
The test system of series [13] is Pseudomonas aeruginosa. Nature of the series: Antibacterial activity against multidrug-resistant Pseudomonas aeruginosa PAO750 assessed as bacterial growth inhibition incubated for 20 to 22 hrs by CLSI based analysis. It is filed as functional. Conditions: time 20-22 hrs.
Series [14] has as its system Enterobacter cloacae. Nature of the series: Antibacterial activity against multidrug-resistant Enterobacter cloacae BAA2341 assessed as bacterial growth inhibition incubated for 20 to 22 hrs by CLSI based analysis. It counts as functional. The settings on record: time 20-22 hrs.
The test system of series [15] is Acinetobacter baumannii. The series is described as follows: Antibacterial activity against multidrug-resistant Acinetobacter baumannii R835 assessed as bacterial growth inhibition incubated for 20 to 22 hrs by CLSI based analysis. The settings on record: time 20-22 hrs. It is filed as functional.
A short description of series [16]: Protein binding in mouse plasma assessed as free fraction. It counts as ADME, cell-free.
Series [17] is described as follows: AUClast in Swiss mouse plasma at 3 mg/kg, iv measured upto 24 hrs by LC-MS/MS analysis. It is filed as ADME, organism-based. Also on record: time < 24 hrs, dose 3 mg/kg, route iv.
The nature of series [18]: Half life in Swiss mouse at 3 mg/kg, iv measured upto 24 hrs by LC-MS/MS analysis. It is filed as ADME, organism-based. Conditions: in vivo.
Series [19] deals with Escherichia coli. Nature of the series: Antibacterial activity against Escherichia coli UT189 infected in Swiss albino mouse model of urinary tract infection assessed as log reduction in bacteremia in kidney at 10 mg/kg, iv pre-infected with bacteria for 24 hrs followed by compound treatment for every 24 hrs for 3 days. It counts as functional. The settings on record: time 3 day.

As usually defined, the MIC is the least concentration at which growth counts as inhibited. The fraction unbound is free concentration divided by total concentration. One may read the AUC(0-t) as exposure summed from dosing to a finite time, without extrapolation to infinity. A low value points to less exposure. One may read the half-life as how long it takes for the measured level to halve. Low readings indicate fast loss, high ones slow loss. On to `CO[C@@H](CNC(=O)[C@H](NC(=O)[C@H](O)[C@H](C)O)[C@H](O)c1cncn1C)[C@H](O)[C@H](O)C(=O)N(C)[C@@H](Cc1ccccc1)C(=O)NCC(=O)N[C@H](C(=O)N[C@@H](CO)C(=O)N[C@H](C(=O)N[C@H](C(=O)N[C@@H](CC(=O)O)C(=O)N1CCC[C@H]1C(=O)NCc1cc(=O)c(O)cn1O)C(C)(C)C)C(C)(C)O)C(C)(C)O`, for which the remaining at 4 h in series [1] is 80%. The minimal inhibitory concentration (MIC) in [2] amounted to 0.03 µg/mL; in series [6], 0.06 µg/mL (≈ 0.0415 µM); in series [7], 0.03 µg/mL (≈ 0.0207 µM); in series [8], 0.01 µg/mL (≈ 0.00691 µM); in series [9] it was 2 µg/mL (≈ 1.38 µM); in [10] it was 0.12 µg/mL (≈ 0.0829 µM). Moreover, the MIC in series [11] was 4 µg/mL (≈ 2.76 µM); in series [12] it was 0.06 µg/mL (≈ 0.0415 µM); in series [13] it was 32 µg/mL (≈ 22.1 µM); in series [14] it was 0.25 µg/mL (≈ 0.173 µM); in [15], 0.06 µg/mL (≈ 0.0415 µM). The outcome in series [3], in series [4] and in series [5] was Active. Further, the fraction unbound in [16] came to 0.51. The molecule further displayed an AUC(0-t) at 24 h in [17] of 2860 ng·h/mL. In series [18], this molecule showed a half-life of 15 min. The “log(activity)” value in [19] is on record as 3.6.
